Tested on: C57BL/6J mice
Assay: Scopolamine-induced amnesia in the novel object recognition (NOR) test
Format: in vivo
Settings: scopolamine 1.2 mg/kg i.p. alone
Protocol: The scopolamine-induced amnesia in the novel object recognition (NOR) test in mice is a recognized in vivo model of Alzheimer Disease (AD).
The aim of this study is to examine whether Melafenoxate (NLS-8) improves amnesia induced by scopolamine in the NOR test.
Experiments were carried out on C57BL/6J mice.
In a first step of the experiment, NLS-8 was tested at 25, 50 and 100 mg/kg.
Animals were divided into 6 groups (N=4-10/group).
At T=0 min, they received the following treatments by intraperitoneal (i.p.) route: • Control group: vehicle. • Scopolamine group: scopolamine (1.2 mg/kg). • NLS-8 25 group: NLS-8 (25 mg/kg)+scopolamine (1.2 mg/kg). • NLS-8 50 group: NLS-8 (50 mg/kg)+scopolamine (1.2 mg/kg). • NLS-8 100 group: NLS-8 (100 mg/kg)+scopolamine (1.2 mg/kg). • NLS-8 150 group: NLS-8 (150 mg/kg)+scopolamine (1.2 mg/kg).
At T=30 min following treatment, animals were subjected to a sample trial. They were placed for a 12-min session in a circular experimental box in which two identical objects were presented (50% of animals: two brown cylindrical vials; 50% of animals: two black rectangular columns). At t=120 min following treatments, mice were subjected to a choice trial. They were placed again for a 12-min session in the same experimental box in which two different objects (a vial and a column) were presented: one of the objects (termed as familiar object) presented in the sample trial and a novel object. Exploration of the objects was recorded by an experimenter blind to treatment and unaware of which object was the novel one and which object was the familiar one.
DI(discrimination index)=100 ×(exploration time of the novel object−exploration time of the familiar object)/(exploration time of the novel object+exploration time of the familiar object). • Index of exploration: N+F=exploration time of the novel object+exploration time of the familiar object.
• Within group comparisons: DI vs. 0 (paired Student's t test). • Between group comparisons vs. the Control group and vs. the Scopo group: unpaired Student's t test.

CN1[C@@H]2C[C@@H](OC(=O)[C@H](CO)c3ccccc3)C[C@H]1[C@@H]1O[C@@H]12 [Scopo, scopolamine, reference compound]
discrimination index vs. 0 (within group): Not significantly different from 0 | discrimination index vs. Control group: Significantly lower

Reference: patent US20250082598A1, “Melafenoxate, 2-(1-adamantylamino)ethyl 2-(4-chlorophenoxy)acetate and derivatives thereof for treating circadian rhythm sleep disorders with neurodegenerative diseases such as Alzheimer's disease” (NLS Pharmaceutics AG, priority 2021, published 2025)
